Measurements published in PMC12603070, “A high-throughput screening approach to discover potential colorectal cancer chemotherapeutics: repurposing drugs to identify novel disruptors of 14-3-3 proteins” (Cell Death & Disease, 2025).
Where a name gives a salt, the structure may show the parent alone. Read-outs that look alike come from different tables or passages of the source.

Tests used:
HT-29 cells = assay: Hoechst/propidium iodide cell death assay in HT-29; assay type: cell-based, human; conditions: for cytotoxicity at 20 µM: Homo sapiens
Excerpt: (§1) A high-content imaging system (PerkinElmer; Operetta CLS), was used to quantify cell death and apoptosis by calculating the number of propidium iodide-positive cells relative to Hoechst-positive cells, and the number of Annexin V-positive cells relative to Hoechst-positive cells, respectively.

NIH-3T3 cells = assay: Hoechst/propidium iodide cell death assay in NIH-3T3; assay type: cell-based; conditions: for cytotoxicity at 20 µM: Mus musculus, NIH3T3, 24 h
Excerpt: as §1

[1] = molecular target: T1, 14-3-3ζ:BAD-112-136F interactions (Homo sapiens, UniProt P63104); assay: BRET sensor screen for disruption of 14-3-3ζ-Rluc8:BAD-112-136F-mCitrine in living NIH-3T3 cells; assay type: cell-based, murine; set-up: inhibition: dose or concentration left out as unconfirmed; BRET reduction on NIH-3T3: unit not given here; conditions: for inhibition / inhibition at 20 µM: NIH3T3, 3 h
T1 construct: expressed in transfected cells; host or cells: NIH-3T3 fibroblasts, bi-directional pBI-CMV1 plasmid
T1 sequence (P63104 1-245): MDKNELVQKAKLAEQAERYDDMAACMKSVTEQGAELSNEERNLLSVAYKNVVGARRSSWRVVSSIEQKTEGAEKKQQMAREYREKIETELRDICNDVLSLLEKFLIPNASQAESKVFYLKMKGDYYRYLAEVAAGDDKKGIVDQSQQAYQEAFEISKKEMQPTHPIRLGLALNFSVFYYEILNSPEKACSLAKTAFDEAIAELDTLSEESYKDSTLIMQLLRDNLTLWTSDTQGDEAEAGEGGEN
Protocol: The Z’-score, which evaluates the robustness of an HTS assay readout, was calculated according to standard protocols. For the HTS, 384-well plates were coated with 100 μg/mL poly-L-ornithine (Sigma, Missouri, United States; #P3655) overnight at 37 °C, followed by rinsing with sterilized water. NIH-3T3 cells were transfected with the BRET sensor two days prior to experimentation, followed by replating onto the pre-coated 384-well plates at a density of 20,000 cells/well. After 24 h of incubation at 37 °C, growth media was replaced by Krebs buffer (pH 7.4).

[2] = HT-29, 24 h, 20 µM, 24 h, read-out: Percentage of cell death % 24h HT-29
[3] = HT-29, 48 h, HT-29, 48h, 20 μM, read-out: Percentage of cell death % 48h, HT-29
[4] = 20 µM, 24 h, read-out: Percentage of cell death % 24h NIH3t3
[5] = NIH-3T3 cells, hits from the primary screen, read-out: BRET reduction on NIH-3T3
[6] = NIH-3T3 expressing BRET sensor, 20 µM, 3 h, read-out: BRET reduction on NIH-3T3
[7] = NIH-3T3 cells, hits from the primary screen
[8] = NIH-3T3 expressing BRET sensor, 20 µM, 3 h

| Compound | inhibition [1, 5] [%] | inhibition at 20 µM [1, 6] [%] | cytotoxicity at 20 µM (HT-29 cells; [2]) [%] | cytotoxicity at 20 µM (HT-29 cells; [3]) [%] | cytotoxicity at 20 µM (NIH-3T3 cells; [4]) [%] | Percentage of cell death % 48h, NIH3T3 (NIH-3T3 cells) [%] | other results |
| --- | --- | --- | --- | --- | --- | --- | --- |
| CC(C)(O)c1ccccc1CC[C@@H](SCC1(CC(=O)O)CC1)c1cccc(/C=C/c2ccc3ccc(Cl)cc3n2)c1 [Montelukast Sodium] | 30.9 | 30.9 | 0.524 | 1.19 | 14.8 | 2.7667 |  |
| Clc1ccc(COC(Cn2ccnc2)c2ccc(Cl)cc2Cl)c(Cl)c1 (stereo not shown) [Miconazole Nitrate] |  |  |  |  |  | 6.033 | Percentage of cell death % 24h HT-29 (HT-29 cells; 20 µM, 24 h): 5.26%; Percentage of cell death % 48h, HT-29 (HT-29 cells; HT-29, 48h, 20 μM): 9.591%; Percentage of cell death % 24h NIH3t3 (NIH-3T3 cells; 20 µM, 24 h): 12.1676%; BRET reduction on NIH-3T3 [1, 7]: 52.8386; BRET reduction on NIH-3T3 [1, 8]: 52.8386 |
| CC/C(=C(/CC)c1ccc(O)cc1)c1ccc(O)cc1 [Diethylstilbestrol] | 28.3 | 28.3 | 0.869 | 2.76 | 11.2 | 3.653 |  |
| Cn1cncc1[C@@](N)(c1ccc(Cl)cc1)c1ccc2c(c1)c(-c1cccc(Cl)c1)cc(=O)n2C [Tipifarnib (Zarnestra), Tipifarnib] |  |  |  |  |  | 52.702 | cytotoxicity at 20 µM (HT-29 cells; HT-29, 24 h, read-out: Percentage of cell death % 24h HT-29, 20 µM, 24 h): 3.09%; cytotoxicity at 20 µM (HT-29 cells; HT-29, 48 h, read-out: Percentage of cell death % 48h, HT-29, HT-29, 48h, 20 μM): 12.9%; cytotoxicity at 20 µM (NIH-3T3 cells; read-out: Percentage of cell death % 24h NIH3t3, 20 µM, 24 h): 65.9%; inhibition at 20 µM ([1]; read-out: BRET reduction on NIH-3T3, NIH-3T3 cells, hits from the primary screen): 43.9%; inhibition at 20 µM ([1]; read-out: BRET reduction on NIH-3T3, NIH-3T3 expressing BRET sensor, 20 µM, 3 h): 43.9% |
| Vitamin B12 |  |  |  |  |  | 0.1179 | Percentage of cell death % 24h HT-29 (HT-29 cells; 20 µM, 24 h): 0.4615%; Percentage of cell death % 48h, HT-29 (HT-29 cells; HT-29, 48h, 20 μM): 1.059%; Percentage of cell death % 24h NIH3t3 (NIH-3T3 cells; 20 µM, 24 h): 0.2976%; BRET reduction on NIH-3T3 [1, 7]: 36.7374; BRET reduction on NIH-3T3 [1, 8]: 36.7374 |
| Clc1ccc(COC(Cn2ccnc2)c2ccc(Cl)cc2Cl)c(Cl)c1 (stereo not shown) [Miconazole] | 48.7 | 48.7 | 2.78 | 5.75 |  | 3.437 | Percentage of cell death % 24h NIH3t3 (NIH-3T3 cells; 20 µM, 24 h): 6.07% |
| CN(C)CCCN1c2ccccc2CCc2ccc(Cl)cc21 [Clomipramine HCl] | 27 | 27 | 0.662 | 2.3 | 7.72 | 8.7601 |  |
| Sodium Aescinate |  |  |  |  |  | 15.6079 | Percentage of cell death % 24h HT-29 (HT-29 cells; 20 µM, 24 h): 0.8457%; Percentage of cell death % 48h, HT-29 (HT-29 cells; HT-29, 48h, 20 μM): 0.6065%; Percentage of cell death % 24h NIH3t3 (NIH-3T3 cells; 20 µM, 24 h): 50.0783%; BRET reduction on NIH-3T3 [1, 7]: 53.9832; BRET reduction on NIH-3T3 [1, 8]: 53.9832 |
| C#C[C@]1(O)CC[C@H]2[C@@H]3CCC4=CCCC[C@@H]4[C@H]3C(=C)C[C@@]21CC [Desogestrel] | 40.6 | 40.6 | 1.59 | 2.12 | 16.1 | 8.012 |  |
| CSc1ccc2c(c1)N(CCC1CCCCN1C)c1ccccc1S2 (stereo not shown) [Thioridazine HCl] | 27.4 | 27.4 | 1.72 | 16.7 | 83.3 | 84.4863 |  |
| Clc1ccc(CCC(Cn2ccnc2)Sc2c(Cl)cccc2Cl)cc1 (stereo not shown) [Butoconazole nitrate] | 45.1 | 45.1 | 1.75 | 3.36 | 1.23 | 1.36 |  |
| Clc1ccc(CSC(Cn2ccnc2)c2ccc(Cl)cc2Cl)cc1 (stereo not shown) [Sulconazole Nitrate] |  |  | 7.98 | 12.2 | 10.8 | 9.7879 |  |
| C(=C\c1ccccc1)/CN1CCN(C(c2ccccc2)c2ccccc2)CC1 [Cinnarizine] |  |  | 0.381 | 1.26 | 0.412 | 0.3398 |  |
| COc1cc2ncnc(Nc3ccc(F)c(Cl)c3)c2cc1NC(=O)/C=C/CN1CCCCC1 [Dacomitinib (PF299804, PF299), Dacomitinib] | 26.7 | 26.7 | 22.7 | 84.1 | 86.8 | 75.5856 |  |
| C=C1/C(=C\C=C2/CCC[C@]3(C)[C@@H]([C@H](C)CCCC(C)(C)O)CC[C@@H]23)C[C@@H](O)C[C@@H]1O [Calcitriol] |  |  | 0.461 | 0.982 | 1.56 | 1.321 |  |
| CC(C)(C)CC(C)(C)c1ccc(OCCOCC[N+](C)(C)Cc2ccccc2)cc1 [Benzethonium Chloride] |  |  |  |  |  | 51.9198 | cytotoxicity at 20 µM (HT-29 cells; HT-29, 24 h, read-out: Percentage of cell death % 24h HT-29): 43.5%; cytotoxicity at 20 µM (HT-29 cells; HT-29, 48 h, read-out: Percentage of cell death % 48h, HT-29): 90.4%; cytotoxicity at 20 µM (NIH-3T3 cells; read-out: Percentage of cell death % 24h NIH3t3): 51.9% |

More lines, main results first:

| inhibition [1, 5] [%] | inhibition at 20 µM [1, 6] [%] | Compound | cytotoxicity at 20 µM (HT-29 cells; [2]) [%] | cytotoxicity at 20 µM (HT-29 cells; [3]) [%] | cytotoxicity at 20 µM (NIH-3T3 cells; [4]) [%] | Percentage of cell death % 48h, NIH3T3 (NIH-3T3 cells) [%] | other results |
| --- | --- | --- | --- | --- | --- | --- | --- |
| 29.5 | 29.5 | C=C(c1ccc(C(=O)O)cc1)c1cc2c(cc1C)C(C)(C)CCC2(C)C [Bexarotene] | 0.535 | 4.19 | 3.81 | 2.3561 |  |
| 27.6 | 27.6 | CCOC(=O)C1=C(C)NC(C)=C(C(=O)OC)C1c1cccc(Cl)c1Cl (stereo not shown) [Felodipine] | 3.81 | 6.71 | 6.69 | 43.2531 |  |
| 44.9 | 44.9 | CCOc1nc2cccc(C(=O)OC(C)OC(=O)OC3CCCCC3)c2n1Cc1ccc(-c2ccccc2-c2nnn[nH]2)cc1 (stereo not shown) [Candesartan Cilexetil] | 1.16 | 1.91 | 12.2 | 2.478 |  |
| 75.6 | 75.6 | CN(C)c1ccc(C(=C2C=CC(=[N+](C)C)C=C2)c2ccc(N(C)C)cc2)cc1 [Crystal Violet] | 94.9 | 95.4 | 94.3 | 91.1305 |  |
| 48.3 | 48.3 | Clc1ccc(COC(Cn2ccnc2)c2ccc(Cl)cc2Cl)cc1 (stereo not shown) [Econazole nitrate] | 8.57 | 13 | 14.2 | 7.996 |  |
| 38.3 | 38.3 | CCCCCCCCCCCCCCCC[N+](C)(C)CCN(Cc1ccc(OC)cc1)c1ncccn1 [Thonzonium Bromide] | 94.9 | 94.7 | 86.2 | 80.9399 |  |
| 56.8 | 56.8 | CN1CCN(c2ccc(C(=O)Nc3n[nH]c4ccc(Cc5cc(F)cc(F)c5)cc34)c(NC3CCOCC3)c2)CC1 [Entrectinib] | 58.1 | 80.4 | 81.5 | 85.5203 |  |
| 51.8 | 51.8 | CC/C(=C(\c1ccccc1)c1ccc(OCCN(C)C)cc1)c1ccccc1 [Tamoxifen Citrate] | 5.86 | 63.3 | 76.5 | 76.3192 |  |
| 40.6 | 40.6 | NC(=O)N1CCC(CC(=O)N2CCC([C@H]3c4ncc(Br)cc4CCc4cc(Cl)cc(Br)c43)CC2)CC1 [Lonafarnib] | 1.12 | 1.7 | 36.3 | 40.7575 |  |
|  | 27.3 | Clc1ccc(C(Cn2ccnc2)OCc2ccsc2Cl)c(Cl)c1 (stereo not shown) [Tioconazole] | 2.22 | 5.98 | 7.78 | 3.795 | inhibition at 20 µM [1, 5]: 27.3% |
